Our source for the EC50 values is patent publication US7998995B2 (Exelixis Patent Company LLC, priority 2006, dated 2011).

The test system of this experiment is T1, LXR.
T1 construct: fused on or other part: GST fused to the LBD in the FRET assay
Nature of the experiment: Measured EC50 or IC50 for LXR (LXRα and/or LXRβ; assay and subtype not given). As to conditions: IC50 or EC50 class, subtype not specified. The protocol: Measured EC50 or IC50 for LXR, and FXR for Compounds of the Invention
LXR and FXR activities for various compounds of the invention are presented in the following table; those compounds with EC50 or IC50 values <10 μM for at least one of LXRα, LXRβ or FXR are considered to be active. In the following Table, IC50 or EC50 data is represented as follows: A<1 μM, B=1-10 μm, and C>10 μM.

Bounds are passed on as bounds.

Usually EC50 stands for the midpoint of the concentration-response curve. Low readings indicate a more potent agent, high ones a less potent agent.

For the compound `O=C(OCc1ccccc1)c1ccc(OCc2cc(C(F)(F)F)nn2-c2ccccc2Cl)cc1` [Example 7, phenylmethyl 4-({[1-(2-chlorophenyl)-3-(trifluoromethyl)-1H-pyrazol-5-yl]methyl}oxy)benzoate], the concentration for a half-maximal effect (EC50) was over 10 µM. Regarding `FC(F)(F)c1cc(COc2ccc(-n3cccc3)cc2)n(-c2ccccc2Cl)n1` [Example 8, 1-(2-chlorophenyl)-5-({[4-(1H-pyrrol-1-yl)phenyl]oxy}methyl)-3-(trifluoromethyl)-1H-pyrazole], the EC50 was under 1 µM. Take `O=C(O)c1cc2cc(OCc3cc(C(F)(F)F)nn3-c3ccccc3Cl)ccc2[nH]1` [Example 9, 5-({[1-(2-chlorophenyl)-3-(trifluoromethyl)-1H-pyrazol-5-yl]methyl}oxy)-1H-indole-2-carboxylic acid]: the concentration for a half-maximal effect (EC50) is over 10 µM.

With `CCOC(=O)c1cc2cc(OCc3cc(C(F)(F)F)nn3-c3ccccc3Cl)ccc2[nH]1` [Example 38, ethyl 5-({[1-(2-chlorophenyl)-3-(trifluoromethyl)-1H-pyrazol-5-yl]methyl}oxy)-1H-indole-2-carboxylate], the EC50 is over 10 µM. As for `CC(C)(C(=O)O)c1cccc(-c2ccc(OCc3cc(C(F)(F)F)nn3-c3ccccc3Cl)cc2)c1` [Example 92, 2-[4′-({[1-(2-chlorophenyl)-3-(trifluoromethyl)-1H-pyrazol-5-yl]methyl}oxy)biphenyl-3-yl]-2-methylpropanoic acid], the figure is 1 to 10 µM; as for `O=C(O)Cc1cccc(-c2ccc(OCc3cc(C(F)(F)F)nn3-c3ccccc3Cl)cc2)c1` [Example 93, [4′-({[1-(2-chlorophenyl)-3-(trifluoromethyl)-1H-pyrazol-5-yl]methyl}oxy)biphenyl-3-yl]acetic acid], over 10 µM; as for `O=C(Oc1cccc(OCc2cc(C(F)(F)F)nn2-c2ccccc2Cl)c1)c1ccccc1` [Example 95, 3-({[1-(2-chlorophenyl)-3-(trifluoromethyl)-1H-pyrazol-5-yl]methyl}oxy)phenyl benzoate], over 10 µM.

In the case of `O=C(O)Cc1ccc(-c2ccc(OCc3cc(C(F)(F)F)nn3-c3ccccc3Cl)cc2)cc1` [Example 98, [4′-({[1-(2-chlorophenyl)-3-(trifluoromethyl)-1H-pyrazol-5-yl]methyl}oxy)biphenyl-4-yl]acetic acid], the EC50 is over 10 µM. Consider `CS(=O)(=O)c1cccc(NC(=O)c2cc(C(F)(F)F)nn2-c2cc(Cl)ccc2Cl)c1` [Example 99, 1-(2,5-dichlorophenyl)-N-[3-(methylsulfonyl)phenyl]-3-(trifluoromethyl)-1H-pyrazole-5-carboxamide], for which the EC50 was over 10 µM. Compound `O=C(NCc1cccc(C(F)(F)F)c1)c1cc(C(F)(F)F)nn1-c1cc(Cl)ccc1Cl` [Example 100, 1-(2,5-dichlorophenyl)-3-(trifluoromethyl)-N-{[3-(trifluoromethyl)phenyl]methyl}-1H-pyrazole-5-carboxamide] came in with an EC50 of over 10 µM. As to `CS(=O)(=O)c1ccc(CNC(=O)c2cc(C(F)(F)F)nn2-c2cc(Cl)ccc2Cl)cc1` [Example 101, 1-(2,5-dichlorophenyl)-N-{[4-(methylsulfonyl)phenyl]methyl}-3-(trifluoromethyl)-1H-pyrazole-5-carboxamide], the concentration giving a half-maximal response (EC50) is over 10 µM.

In turn, `O=C(NCc1cccc(Cl)c1)c1cc(C(F)(F)F)nn1-c1cc(Cl)ccc1Cl` [Example 102, N-[(3-chlorophenyl)methyl]-1-(2,5-dichlorophenyl)-3-(trifluoromethyl)-1H-pyrazole-5-carboxamide] came in with an EC50 of over 10 µM. As for `CS(=O)(=O)c1cccc(CNC(=O)c2cc(C(F)(F)F)nn2-c2ccccc2Cl)c1` [Example 103, 1-(2-chlorophenyl)-N-{[3-(methylsulfonyl)phenyl]methyl}-3-(trifluoromethyl)-1H-pyrazole-5-carboxamide], the figure is over 10 µM; as for `CC(C)Oc1ccccc1-n1nc(C(F)(F)F)cc1C(=O)NCc1cccc(C(F)(F)F)c1` [Example 104, 1-{2-[(1-methylethyl)oxy]phenyl}-3-(trifluoromethyl)-N-{[3-(trifluoromethyl)phenyl]methyl}-1H-pyrazole-5-carboxamide], over 10 µM; as for `CC(=O)c1cccc(NC(=O)Nc2cc(C(F)(F)F)nn2-c2ccccc2C(F)(F)F)c1` [Example 105, N-(3-acetylphenyl)-N′-{3-(trifluoromethyl)-1-[2-(trifluoromethyl)phenyl]-1H-pyrazol-5-yl}urea], over 10 µM. `O=C(NCc1cccc(C(F)(F)F)c1)c1cc(C(F)(F)F)nn1-c1ccccc1Cl` [Example 106, 1-(2-chlorophenyl)-3-(trifluoromethyl)-N-{[3-(trifluoromethyl)phenyl]methyl}-1H-pyrazole-5-carboxamide] displayed an EC50 of over 10 µM. Take `NS(=O)(=O)c1cccc(C#Cc2cc(C(F)(F)F)nn2-c2ccccc2Cl)c1` [Example 107, 3-{[1-(2-chlorophenyl)-3-(trifluoromethyl)-1H-pyrazol-5-yl]ethynyl}benzenesulfonamide]: the EC50 was 1 to 10 µM. As for `CS(=O)(=O)c1cccc(C#Cc2cc(C(F)(F)F)nn2-c2ccccc2Cl)c1` [Example 108, 1-(2-chlorophenyl)-5-{[3-(methylsulfonyl)phenyl]ethynyl}-3-(trifluoromethyl)-1H-pyrazole], the figure is under 1 µM; as for `CS(=O)(=O)c1ccc(C#Cc2cc(C(F)(F)F)nn2-c2ccccc2Cl)cc1` [Example 109, 1-(2-chlorophenyl)-5-{[4-(methylsulfonyl)phenyl]ethynyl}-3-(trifluoromethyl)-1H-pyrazole], under 1 µM. In the case of `CS(=O)(=O)Cc1ccc(C#Cc2cc(C(F)(F)F)nn2-c2ccccc2Cl)cc1` [Example 110, 1-(2-chlorophenyl)-5-({4-[(methylsulfonyl)methyl]phenyl}ethynyl)-3-(trifluoromethyl)-1H-pyrazole] it was 1 to 10 µM; in that of `FC(F)(F)c1cc(COc2ccc(-c3ccccc3)cc2)n(-c2ccccc2Cl)n1` [Example 111, 5-[(biphenyl-4-yloxy)methyl]-1-(2-chlorophenyl)-3-(trifluoromethyl)-1H-pyrazole], 1 to 10 µM. As for `CS(=O)(=O)c1cccc(-c2ccc(OCc3nc(C(F)(F)F)cn3-c3c(Cl)cccc3Cl)cc2)c1` [Example 114, 1-(2,6-dichlorophenyl)-2-({[3′-(methylsulfonyl)biphenyl-4-yl]oxy}methyl)-4-(trifluoromethyl)-1H-imidazole], the figure is under 1 µM. In the case of `CS(=O)(=O)c1cccc(-c2ccc(COc3cc(C(F)(F)F)nn3-c3c(Cl)cccc3Cl)cc2)c1` [Example 116, 1-(2,6-dichlorophenyl)-5-({[3′-(methylsulfonyl)biphenyl-4-yl]methyl}oxy)-3-(trifluoromethyl)-1H-pyrazole], the EC50 was under 1 µM. As for `CS(=O)(=O)c1cccc(-c2ccc(COc3cc(C(F)(F)F)nn3-c3c(Cl)cccc3Cl)c(F)c2)c1` [Example 117, 1-(2,6-dichlorophenyl)-5-({[3-fluoro-3′-(methylsulfonyl)biphenyl-4-yl]methyl}oxy)-3-(trifluoromethyl)-1H-pyrazole], the EC50 is under 1 µM. Compound `CS(=O)(=O)c1cccc(NC(=O)c2cc(C(F)(F)F)nn2-c2ccccc2Cl)c1` [Example 611, 1-(2-chlorophenyl)-N-[3-(methylsulfonyl)phenyl]-3-(trifluoromethyl)-1H-pyrazole-5-carboxamide] yielded an EC50 of over 10 µM. As for `CS(=O)(=O)c1cccc(-c2ccc(OCc3cc(C(F)(F)F)nn3-c3c(Cl)cccc3Cl)cc2)c1` [Example 891, 1-(2,6-dichlorophenyl)-5-((3′-(methylsulfonyl)biphenyl-4-yloxy)methyl)-3-(trifluoromethyl)-1H-pyrazole], the figure is under 1 µM; as for `CS(=O)(=O)c1cccc(-c2ccc(OCc3cc(C(F)(F)F)nn3-c3ccccc3Cl)c(Cl)c2)c1` [Example 908, 5-({[3-chloro-3′-(methylsulfonyl)biphenyl-4-yl]oxy}methyl)-1-(2-chlorophenyl)-3-(trifluoromethyl)-1H-pyrazole], 1 to 10 µM. As for `Cc1cc(-c2cccc(S(C)(=O)=O)c2)ccc1OCc1cc(C(F)(F)F)nn1-c1ccccc1Cl` [Example 909, 1-(2-chlorophenyl)-5-({[3-methyl-3′-(methylsulfonyl)biphenyl-4-yl]oxy}methyl)-3-(trifluoromethyl)-1H-pyrazole], the figure is under 1 µM. For the compound `Cc1cc(OCc2cc(C(F)(F)F)nn2-c2ccccc2Cl)ccc1-c1cccc(S(C)(=O)=O)c1` [Example 910, 1-(2-chlorophenyl)-5-({[2-methyl-3′-(methylsulfonyl)biphenyl-4-]oxy}methyl)-3-(trifluoromethyl)-1H-pyrazole], the EC50 was in the range of 1 to 10 µM. In the case of `CS(=O)(=O)c1cccc(-c2ccc(OCc3cc(C(F)(F)F)nn3-c3ccccc3Cl)cc2Cl)c1` [Example 911, 5-({[2-chloro-3′-(methylsulfonyl)biphenyl-4-yl]oxy}methyl)-1-(2-chlorophenyl)-3-(trifluoromethyl)-1H-pyrazole] it was under 1 µM.

In the case of `FC(F)(F)c1cc(COc2ccc(-n3cccc3)cc2)n(-c2c(Cl)cccc2Cl)n1` [Example 922, 1-(2,6-dichlorophenyl)-5-({[4-(1H-pyrrol-1-yl)phenyl]oxy}methyl)-3-(trifluoromethyl)-1H-pyrazole], the EC50 is under 1 µM.

As to `FC(F)(F)c1cc(COc2ccc(-n3ccnc3)cc2)n(-c2c(Cl)cccc2Cl)n1` [Example 923, 1-(2,6-dichlorophenyl)-5-({[4-(1H-imidazol-1-yl)phenyl]oxy}methyl)-3-(trifluoromethyl)-1H-pyrazole], the EC50 was under 1 µM. `FC(F)(F)c1cc(COc2ccc(-c3ccccc3)cc2)n(-c2c(Cl)cccc2Cl)n1` [Example 924, 5-[(biphenyl-4-yloxy)methyl]-1-(2,6-dichlorophenyl)-3-(trifluoromethyl)-1H-pyrazole] displayed an EC50 of 1 to 10 µM.
